The text below walks through data of patent US8507539B2, “Potassium channel blockers and uses thereof” (Bionomics Limited, priority 2008, dated 2013).

This test addresses hKv1.3 (Homo sapiens, UniProt P22001). Kind of test: Whole-cell patch-clamp block of Kv1.3 current in CHO cells stably expressing hKv1.3. It counts as cell-based. The following applies: CHO cells stably expressing hKv1.3, whole-cell patch clamp; reported as ranges; read-out: IC50 (Kv1.3). On the procedure:
The effectiveness of the generated compounds in blocking the Kv1.3 current was assayed on CHO cells stably expressing hKv1.3. Cells were grown in F12 Kaighns' medium supplemented with 10% fetal calf serum, 2 mM L-glutamine, 1 mM Na^+ pyruvate, 100 units/ml penicillin, 100 Fg/ml streptomycin and 500 μg/ml G418 (to keep them under selection pressure). Kv1.3 currents were measured using the whole-cell configuration of the patch-clamp technique and were evoked by 500 ms depolarising voltage pulses to +40 mV from a holding potential of −80 mV at 30 sec intervals. Cells were continuously bathed in Ringers solution containing (mM): 160 NaCl, 4.5 KCl, 2.5 CaCl2, 1 MgCl2, 10 HEPES, pH 7.4, 290-310 mOsm. The internal (pipette) solution contained (mM): 134 KF, 2 MgCl2, 10 HEPES, 10 EGTA (pH 7.2, 290-310 mOsm). Series resistance compensation (60-80%) was applied when the peak current amplitude exceeded 2 nA. Compounds initially dissolved in DMSO were diluted in bath solution (final DMSO concentration 0.5%) and applied directly to the recording chamber at increasing concentrations allowing ample time for steady state block to be achieved between each concentration. Each compound was tested at 4-5 different concentrations in triplicate. IC50 values were determined by fitting the average normalised reduction of the current integral to the Hill equation.

Sequence of hKv1.3 (P22001 whole entry): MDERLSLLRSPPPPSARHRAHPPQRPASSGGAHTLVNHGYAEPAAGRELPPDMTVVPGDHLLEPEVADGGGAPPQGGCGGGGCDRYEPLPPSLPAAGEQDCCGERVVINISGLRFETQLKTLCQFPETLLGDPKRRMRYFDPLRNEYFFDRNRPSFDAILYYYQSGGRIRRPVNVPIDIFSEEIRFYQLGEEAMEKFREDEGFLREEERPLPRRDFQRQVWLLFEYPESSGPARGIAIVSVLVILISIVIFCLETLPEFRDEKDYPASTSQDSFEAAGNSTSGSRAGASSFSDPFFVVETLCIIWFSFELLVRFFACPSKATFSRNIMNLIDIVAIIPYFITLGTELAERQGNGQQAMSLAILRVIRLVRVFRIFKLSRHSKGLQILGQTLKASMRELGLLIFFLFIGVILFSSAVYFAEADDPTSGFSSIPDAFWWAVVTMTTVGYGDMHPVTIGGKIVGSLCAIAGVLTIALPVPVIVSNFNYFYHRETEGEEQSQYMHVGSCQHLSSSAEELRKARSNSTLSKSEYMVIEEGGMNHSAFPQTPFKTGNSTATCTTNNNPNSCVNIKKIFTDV

As for `CC(=O)c1c(OCCN2CCOCC2)c(OCCC(C)c2ccc(F)cc2)c2oc(C)nc2c1Cl` (stereo not drawn) [Example 38h, 5-Acetyl-4-chloro-7-(3-(4-fluorophenyl)butoxy)-6-(2-(morpholin-4-yl)ethoxy)-2-methyl-benzo[d]oxazole], the concentration for half-maximal inhibition (IC50) fell in the range of 50 to 200 nM.

Take `Cc1nc2c(C)c(C(C)O)c(OCCN3CCSCC3)c(OCCC(C)c3ccc(F)cc3)c2o1` (stereo not drawn) [Example 27, 4-(1-Hydroxyethyl)-7-[3-(4-fluorophenyl)butoxy]-2,4-dimethyl-6-(2-thiomorpholin-4-ylethoxy)-benzo[d]oxazole]: the IC50 was under 50 nM.

Consider `CC(=O)c1c(OCCN2CCCC(F)(F)C2)c(OCCC(C)c2ccc(F)cc2)c2oc(C(C)C)nc2c1C` (stereo not drawn) [Example 33b, 5-Acetyl-6-[2-(3,3-difluoropiperidin-1-yl)ethoxy]-7-[3-(4-fluorophenyl)butoxy]-2-isopropyl-4-methylbenzo[d]oxazole], for which the half-maximal inhibitory concentration (IC50) lay in the range of 50 to 200 nM.

On to `CC(=O)c1c(OCCN2CCCC(F)(F)C2)c(OCCC(C)c2ccc(F)cc2)c2oc(C)nc2c1Cl` (stereo not drawn) [Example 39, 5-Acetyl-4-chloro-7-(3-(4-fluorophenyl)butoxy)-6-(2-(3,3-difluoropiperidin-1-yl)ethoxy)-2-methyl-benzo[d]oxazole], for which the concentration for half-maximal inhibition (IC50) is 50 to 200 nM.

Consider `CC(=O)c1c(OCCN2CC[S+]([O-])CC2)c(OCCC(C)c2ccc(F)cc2)c2oc(C)nc2c1C` (stereo not drawn) [Example 14, 5-Acetyl-7-[3-(4-fluorophenyl)butoxy]-2,4-dimethyl-6-[2-(1-oxo-thiomorpholin-4-yl)-ethoxy]-benzooxazole], for which the concentration for half-maximal inhibition (IC50) lay within 50 to 200 nM.

Turning to `CC(=O)c1c(OCCc2cccc[n+]2[O-])c(OCCC(C)c2ccc(F)cc2)c2oc(C)nc2c1C` (stereo not drawn) [Example 9, 2-(2-(5-acetyl-7-(3-(4-fluorophenyl)butoxy)-2,4-dimethylbenzo[d]oxazol-6-yloxy)ethyl)pyridine 1-oxide], the 50% inhibitory concentration (IC50) lay within 200 to 1000 nM.

For the compound `CC(=O)c1c(OCCc2ccccn2)c(OCCC(C)c2ccc(F)cc2)c2oc(C)nc2c1C` (stereo not drawn) [Example 8, 5-Acetyl-7-[3-(4-fluorophenyl)butoxy]-2,4-dimethyl-6-(2-pyridin-2-yl-ethoxy)-benzooxazole], the IC50 was under 50 nM.

For `CC(=O)c1c(OC2CCN(C3CCCC3)CC2)c(OCCC(C)c2ccc(F)cc2)c2oc(C)nc2c1C` (stereo not drawn) [Example 40c], the IC50 lay in the range of 50 to 200 nM.

In the case of `CC(=O)c1c(OCCN=C(N(C)C)N(C)C)c(OCCC(C)c2ccc(F)cc2)c2oc(C)nc2c1C` (stereo not drawn) [Example 23, 5-Acetyl-6-(2-(N,N,N′,N′-tetramethylguanidinium)ethoxy)-7-[3-(4-fluorophenyl)butoxy]-2,4-dimethyl-benzo[d]oxazole chloride], the half-inhibitory concentration (IC50) lay within 200 to 1000 nM.

Turning to `CC(=O)c1c(OCCN2CCOCC2)c(OCCC(C)c2ccc(F)cc2)c2oc(C)nc2c1C` (stereo not drawn) [Example 6c, 5-Acetyl-7-[3-(4-fluorophenyl)butoxy]-2,4-dimethyl-6-(2-morpholin-4-yl-ethoxy)-benzooxazole], the IC50 is under 50 nM.

On to `CC(=O)c1c(OCCN2CCOCC2)c(OCCCc2ccccc2)c2oc(C)nc2c1Cl` [Example 37j], for which the IC50 is 200 to 1000 nM.

In the case of `CC(=O)c1c(OCCn2nnc(N)n2)c(OCCC(C)c2ccc(F)cc2)c2oc(C)nc2c1C` (stereo not drawn) [Example 11a, 5-Acetyl-6-[2-(5-aminotetrazol-2-yl)-ethoxy]-7-[3-(4-fluorophenyl)butoxy]-2,4-dimethyl-benzooxazole], the 50% inhibitory concentration (IC50) is under 50 nM.

Take `CC(=O)c1c(OCCN2CCOCC2)c(OCCC(C)c2ccc(F)cc2)c2oc(C(F)(F)F)nc2c1C` (stereo not drawn) [Example 28c, 5-Acetyl-7-[3-(4-fluorophenyl)butoxy]-4-methyl-6-(2-morpholin-4-yl-ethoxy)-2-trifluoromethyl-benzooxazole]: the 50% inhibitory concentration (IC50) fell in the range of 50 to 200 nM.

With `CC(=O)c1c(OCCN2CCC(C)(O)CC2)c(OCCC(C)c2ccc(F)cc2)c2oc(C)nc2c1C` (stereo not drawn) [Example 19, 5-Acetyl-7-[3-(4-fluorophenyl)butoxy]-6-[2-(4-hydroxy-4-methyl-piperidin-1-yl)-ethoxy]-2,4-dimethyl-benzooxazole], the IC50 was in the range of 50 to 200 nM.

As for `CCN(CC)CCOc1c(C(C)=O)c(C)c2nc(C)oc2c1OCCC(C)c1ccc(F)cc1` (stereo not drawn) [Example 20, 5-Acetyl-6-(2-diethylamino-ethoxy)-7-[3-(4-fluorophenyl)butoxy]-2,4-dimethyl-benzooxazole], the half-maximal inhibitory concentration (IC50) lay within 200 to 1000 nM.

Turning to `CC(=O)c1c(OCCN2CCCC(F)(F)C2)c(OCCC(C)c2ccc(F)cc2)c2oc(C)nc2c1C` (stereo not drawn) [Example 43, 5-Acetyl-7-[3-(4-fluorophenyl)butoxy]-6-[2-(3,3-difluoropiperidin-1-yl)-ethoxy]-2,4-dimethyl-benzooxazole], the 50% inhibitory concentration (IC50) is under 50 nM.

On to `CC(=O)c1c(OCCn2ccnc2)c(OCCC(C)c2ccc(F)cc2)c2oc(C)nc2c1C` (stereo not drawn) [Example 10b, 5-Acetyl-7-[3-(4-fluorophenyl)butoxy]-6-(2-imidazol-1-yl-ethoxy)-2,4-dimethyl-benzooxazole], for which the half-maximal inhibitory concentration (IC50) was in the range of 50 to 200 nM.

As to `CC(=O)c1c(OCCN2CCS(=O)(=O)CC2)c(OCCC(C)c2ccc(F)cc2)c2oc(C)nc2c1C` (stereo not drawn) [Example 15, 5-Acetyl-6-[2-(1,1-dioxo-thiomorpholin-4-yl)-ethoxy]-7-[3-(4-fluorophenyl)butoxy]-2,4-dimethyl-benzooxazole], the half-maximal inhibitory concentration (IC50) was under 50 nM.

For the compound `CC(=O)c1c(OCCN2CCOCC2)c(OCCC(C)c2ccc(F)cc2)c2oc(C3CC3)nc2c1C` (stereo not drawn) [Example 35d, 5-Acetyl-7-[3-(4-fluorophenyl)butoxy]-2-cyclopropyl-4-methyl-6-(2-morpholin-4-yl-ethoxy)-benzo[d]oxazole], the concentration for half-maximal inhibition (IC50) is 50 to 200 nM.

With `CC(=O)c1c(OCCN)c(OCCC(C)c2ccc(F)cc2)c2oc(C)nc2c1C` (stereo not drawn) [Example 22, 5-Acetyl-6-(2-aminiumethoxy)-7-[3-(4-fluorophenyl)butoxy]-2,4-dimethyl-benzo[d]oxazole chloride], the IC50 lay in the range of 200 to 1000 nM.

Regarding `CC(=O)c1c(OCCN2CCN(C)CC2)c(OCCC(C)c2ccc(F)cc2)c2oc(C)nc2c1C` (stereo not drawn) [Example 25], the 50% inhibitory concentration (IC50) is 200 to 1000 nM.

`CC(=O)c1c(OCCc2ccccn2)c(OCCC(C)c2ccc(F)cc2)c2oc(C(F)(F)F)nc2c1C` (stereo not drawn) [Example 29, 5-Acetyl-7-[3-(4-fluorophenyl)butoxy]-4-methyl-6-(2-pyridin-2-yl-ethoxy)-2-trifluoromethyl-benzo[d]oxazole]: the IC50 fell in the range of 50 to 200 nM.

As for `CC(=O)c1c(OCCN2CCOCC2)c(OCCCc2ccccc2)c2ocnc2c1C` [Example 1i, 5-Acetyl-4-methyl-6-(2-morpholinoethoxy)-7-(3-phenylpropoxy)-benzo[d]oxazole], the IC50 is 50 to 200 nM.

With `CC(=O)c1c(OCCN2CCOCC2)c(OCCC(C)c2ccc(F)cc2)c2oc(C(F)F)nc2c1C` (stereo not drawn) [Example 30c, 5-Acetyl-7-[3-(4-fluorophenyl)butoxy]-6-(2-morphin-4-yl-ethoxy)-4-methyl-2-difluoromethyl-benzo[d]oxazole], the IC50 was 50 to 200 nM.

Take `CC(=O)c1c(OCCN2CCC(=O)CC2)c(OCCC(C)c2ccc(F)cc2)c2oc(C)nc2c1C` (stereo not drawn) [Example 12, 1-(2-{5-Acetyl-7-[3-(4-fluorophenyl)butoxy]-2,4-dimethyl-benzooxazol-6-yloxy}-ethyl)-piperidin-4-one]: the IC50 was 50 to 200 nM.

In the case of `CC(=O)c1c(OCCN2CCOCC2)c(OCCC(C)c2ccc(F)cc2)c2ocnc2c1C` (stereo not drawn) [Example 2d, 5-Acetyl-7-[3-(4-fluorophenyl)butoxy]-4-methyl-6-(2-morpholin-4-yl-ethoxy)benzooxazole], the half-inhibitory concentration (IC50) was under 50 nM.

On to `CC(=O)c1c(OCCN2CCOCC2)c(OCCC(C)c2ccc(F)cc2)c2oc(C(C)C)nc2c1C` (stereo not drawn) [Example 32c, 5-Acetyl-7-[3-(4-fluorophenyl)butoxy]-2-isopropyl-4-methyl-6-(2-morpholin-4-O-ethoxy)-benzo[d]oxazole], for which the 50% inhibitory concentration (IC50) is under 50 nM.

With `CC(=O)c1c(OCCn2ccnc2C)c(OCCC(C)c2ccc(F)cc2)c2oc(C(C)C)nc2c1C` (stereo not drawn) [Example 34, 5-Acetyl-7-[3-(4-fluorophenyl)butoxy]-2-isopropyl-1-4-methyl-6-[2-(2-methyl-1H-imidazol-1-yl)ethoxy]-benzo[d]oxazole], the IC50 fell in the range of 200 to 1000 nM.

In the case of `CC(=O)c1c(OCCN(C)C)c(OCCC(C)c2ccc(F)cc2)c2ocnc2c1C` (stereo not drawn) [Example 4b, 5-Acetyl-7-[3-(4-fluorophenyl)butoxy]-4-methyl-6-(2-N,N-dimethylamino-ethoxy)benzooxazole], the half-maximal inhibitory concentration (IC50) was in the range of 200 to 1000 nM.

With `CC(=O)c1c(OCC[n+]2ccc(N)cc2)c(OCCC(C)c2ccc(F)cc2)c2oc(C)nc2c1C` (stereo not drawn) [Example 21, 5-Acetyl-6-(2-(4-aminopyridin-1-ium)ethoxy)-7-[3-(4-fluorophenyl)butoxy]-2,4-dimethyl-benzo[d]oxazole chloride], the IC50 was over 1000 nM.

Take `CC(=O)c1c(OC2CN(C3CCCC3)C2)c(OCCC(C)c2ccc(F)cc2)c2oc(C)nc2c1C` (stereo not drawn) [Example 41b]: the IC50 fell in the range of 50 to 200 nM.

`CC(=O)c1c(OCCn2ccnc2C)c(OCCC(C)c2ccc(F)cc2)c2oc(C)nc2c1C` (stereo not drawn) [Example 16, 5-Acetyl-7-[3-(4-fluorophenyl)butoxy]-2,4-dimethyl-6-[2-(2-methylimidazol-1-yl)-ethoxy]-benzooxazole]: the IC50 is 50 to 200 nM.

`CC(=O)c1c(OCCn2ccnc2)c(OCCC(C)c2ccc(F)cc2)c2ocnc2c1C` (stereo not drawn) [Example 5, 5-Acetyl-7-[3-(4-fluorophenyl)butoxy]-4-methyl-6-(2-N-imidazolyl-ethoxy)benzooxazole]: the IC50 was under 50 nM.
